ChEMBL document CHEMBL1201862, “PubChem BioAssay data set” (2004)
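In this assay, cells in 96-well plates receive the compound at five concentrations for 48 hours. Endpoints are linearly interpolated between the surrounding concentrations. GI50: concentration for 50% inhibition of growth.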 Calls of active or inactive are those of the source. No stated cut-off is given here; in the data, active = GI50 up to about 1.1 µM and inactive = higher.

Assays:
Assay in all cases: DTP human tumour cell line panel, 48 h
OVCAR-5 = test system: OVCAR-5
EKVX = test system: EKVX
KM12 = test system: KM12
RPMI-8226 = test system: RPMI-8226
COLO 205 = test system: COLO 205
NCI-H23 = test system: NCI-H23
MOLT-4 = test system: MOLT-4
OVCAR-8 = test system: OVCAR-8
SK-MEL-5 = test system: SK-MEL-5
LOX IMVI = test system: LOX IMVI
HT-29 = test system: HT-29
SK-OV-3 = test system: SK-OV-3
SK-MEL-2 = test system: SK-MEL-2
HOP-62 = test system: HOP-62
SN12C = test system: SN12C
UACC-257 = test system: UACC-257
CAKI-1 = test system: CAKI-1
OVCAR-4 = test system: OVCAR-4
K562 = test system: K562
NCI-H226 = test system: NCI-H226

Measured: GI50

Cc1c(OCc2ccccc2)c(=O)ccn1CCc1c[nH]c2ccccc12
inactive: OVCAR-5 65.9 µM | EKVX 41.3 µM | KM12 33.7 µM | RPMI-8226 31.9 µM | COLO 205 16.4 µM | NCI-H23 37.6 µM | MOLT-4 1.9 µM | OVCAR-8 53 µM | SK-MEL-5 18.3 µM | LOX IMVI 44.6 µM | HT-29 23.3 µM | SK-OV-3 > 100 µM | SK-MEL-2 19 µM | HOP-62 > 100 µM | SN12C 45.6 µM | UACC-257 73.8 µM

COC(=O)C1CCC(=O)N1/C(C)=N/NC(=O)Nc1ccc(Cl)c(Cl)c1 (stereo not given)
inactive: EKVX > 100 µM | CAKI-1 74.6 µM | KM12 98.4 µM | RPMI-8226 > 100 µM | COLO 205 > 100 µM | NCI-H23 > 100 µM | MOLT-4 99.1 µM | OVCAR-4 > 100 µM | OVCAR-8 > 100 µM | SK-MEL-5 > 100 µM | K562 16.6 µM | LOX IMVI 31.5 µM | SK-OV-3 43.4 µM | SK-MEL-2 > 100 µM | HOP-62 > 100 µM | SN12C > 100 µM | UACC-257 > 100 µM

COc1ccc(C2C(C(=O)O)=C(COC(C)=O)Oc3cc4c(cc32)OCO4)cc1 (stereo not given)
inactive: EKVX > 100 µM | CAKI-1 > 100 µM | RPMI-8226 > 100 µM | COLO 205 > 100 µM | NCI-H23 > 100 µM | MOLT-4 > 100 µM | OVCAR-4 > 100 µM | OVCAR-8 > 100 µM | SK-MEL-5 > 100 µM | K562 > 100 µM | LOX IMVI > 100 µM | HT-29 > 100 µM | SK-OV-3 > 100 µM | HOP-62 > 100 µM | SN12C > 100 µM | UACC-257 > 100 µM

CCCNC(/C=C/[Si](C)(C)C)CO.CCCNCC(O)/C=C/[Si](C)(C)C (stereo not given)
inactive: OVCAR-5 > 100 µM | EKVX > 100 µM | KM12 > 100 µM | RPMI-8226 90.8 µM | COLO 205 98.2 µM | NCI-H23 > 100 µM | MOLT-4 10 µM | OVCAR-8 > 100 µM | SK-MEL-5 > 100 µM | K562 > 100 µM | LOX IMVI > 100 µM | HT-29 > 100 µM | SK-OV-3 > 100 µM | SK-MEL-2 > 100 µM | SN12C > 100 µM | UACC-257 > 100 µM

O=P1(N2CCOCC2)OCCO1
inactive: OVCAR-5 > 100 µM | EKVX > 100 µM | CAKI-1 > 100 µM | KM12 > 100 µM | RPMI-8226 > 100 µM | COLO 205 > 100 µM | NCI-H23 > 100 µM | MOLT-4 > 100 µM | OVCAR-4 > 100 µM | SK-MEL-5 > 100 µM | K562 > 100 µM | LOX IMVI > 100 µM | HT-29 > 100 µM | SN12C > 100 µM | UACC-257 > 100 µM

CCOC(=O)c1c(-c2ccccc2)c(C)cn1C
inactive: OVCAR-5 > 10 µM | EKVX > 10 µM | KM12 > 10 µM | NCI-H226 > 10 µM | NCI-H23 > 10 µM | MOLT-4 > 10 µM | OVCAR-4 > 10 µM | OVCAR-8 > 10 µM | K562 > 10 µM | HT-29 > 10 µM | SK-OV-3 > 10 µM | SK-MEL-2 > 10 µM | SN12C 3.73 µM | UACC-257 > 10 µM

COC1C=CC(O)C(CO)O1 (stereo not given)
inactive: OVCAR-5 > 100 µM | EKVX > 100 µM | KM12 > 100 µM | NCI-H23 > 100 µM | MOLT-4 > 100 µM | OVCAR-4 > 100 µM | OVCAR-8 > 100 µM | SK-MEL-5 > 100 µM | K562 > 100 µM | LOX IMVI > 100 µM | HT-29 > 100 µM | SK-OV-3 > 100 µM | SK-MEL-2 > 100 µM | HOP-62 > 100 µM | SN12C > 100 µM | UACC-257 > 100 µM
